Patent US8937055B2, “Heterocyclic ring compound having muscle cell or adipocyte differentiation regulating action” (Takeda Pharmaceutical Company Limited, priority 2010, dated 2015)

What was measured:
[1] = Anti-obesity action in high-fat diet-loaded mouse; assay type: in vivo, male C57BL/6J mouse; settings: for plasma total cholesterol concentration (mg/dL) before administration: before administration (baseline); for plasma total cholesterol concentration (mg/dL) before administration / plasma total cholesterol concentration (mg/dL) after administration for 4 weeks / body weight: mean ± SD, n=6; for body weight: once a day for 4 weeks, administration completion day
Procedure: As male C57BL/6J mouse (CLEA Japan, Inc.), mice fed with a high-fat diet (45 kcal % fat, D12451, research diet) for 40 weeks from 5 weeks old were used. After acclimation bred for 3 weeks, the body weight, ingestion amount, body fat percentage, plasma triglyceride, insulin and leptin concentration were measured, and the mice were divided into 4 groups at 6 per group without difference between them. Plasma total cholesterol concentration was measured using Hitachi automatic analyzer 7180. The compound of Example 1 was suspended in aqueous methylcellulose solution, and the suspension was orally administered repeatedly to 3 groups of the […] divided into 4 groups at 3 mg/kg, 10 mg/kg or 30 mg/kg once a day for 4 weeks. A 0.5% aqueous methylcellulose solution was orally administered similarly to the remaining one group, and the group was used as a control group. On the administration completion day, the body weight and plasma total cholesterol concentration were measured. The numerical values in Table 5 show mean±standard deviation at n=6 (n is the number of mice).

[2] = test system: differentiated C2C12 muscle cell; assay: Sugar metabolism promoting activity in muscle cell (lactic acid production); assay type: cell-based, mouse; settings: C2C12 myotube, 1 μM compound, 2 days; lactic acid concentration without compound = 100%
Procedure: • (1) In the same manner as in Experimental Example 1, C2C12 cell was cultured in a growth medium. When the cells reached subconfluence, the medium was exchanged with a differentiation medium, and the cells were cultured for 3 to 4 days while exchanging the medium every 2 or 3 days until the cells differentiated to form a myotube. • (2) After confirmation of myotube formation under a microscope, the compound (1 μM) was added to a differentiation medium and cultured for 2 days. The cells were washed with Krebs-Ringer HEPES phosphate buffer (10 mM HEPES, pH 7.4, 131 mM NaCl, 4.7 mM KCl, 2.5 mM CaCl2-2H2O, 1.2 mM MgSO4-7H2O, 1.2 mM KH2PO4), the medium was exchanged with Krebs-Ringer HEPES phosphate buffer containing 5 mM glucose, 0.2% fatty acid-free bovine serum albumin, and the cells were cultured at 37° C. for 4 hr. • (3) The lactic acid concentration of the culture supernatant was measured using Detarminer LA kit (Kyowa Medex Co., Ltd.).
The numerical values in Table 4 show the lactic acid concentration of the compound addition group with the lactic acid concentration without addition of the compound as 100%.

NF-kB = NF-kB activation suppressive action in muscle cell (luciferase reporter, TNF-α induced); assay type: cell-based, mouse; settings: TNF-α 10 ng/mL, activity without TNF-α = 1, n=8
Procedure: • (1) C2C12 cells introduced with NF-kB reporter plasmid (C2C12/NF-kB-luc, Panomics) was plated at 20000 cells/cm^2, 100 μg/ml hygromycin was added thereto, and the cells were cultured in a growth medium in the same manner as in Example 1. • (2) The cells were cultured in a differentiation medium containing the compound of Example 1, Example 8, Example 9, Example 10 or Example 11 for 1 hr, TNF-α was added thereto such that the concentration is 10 ng/mL, and the cells were cultured for 4 hr. • (3) The luciferase activity in the medium was measured using a Stedy-Glo luciferase assay system (Promega). The NF-kB activity was evaluated by measuring the luciferase activity.
The data in Table 6 to Table 10 show mean±standard deviation at n=8 (n is the number of samples).

3T3-L1 cells = assay: Adipocyte differentiation suppressive action (fat droplet quantification); assay type: cell-based
Procedure: 3T3-L1 cells (ATCC) were cultured in a growth medium until confluence. 1 μM dexamethasone, 0.5 mM 3-isobutyl-1-methylxanthine and 5 μg/mL insulin were added to the medium, and the cells were cultured for 3 days. The medium was exchanged with a growth medium containing 4 μg/mL insulin and the cells were cultured for 3 more days. When the compound (1 μM) was to be added, it was added after the cells reached confluence, and the cells were cultured for 6 days. After completion of the culture period, the fat droplet formed was quantified using Adipogenesis Assay Kit (CHEMICON). The numerical values in Table 12 show the relative value when without addition of the compound as 100% (n is the number of samples).

[3] = test system: Mouse-derived myoblast line C2C12 cell; assay: Cell differentiation promoting activity in myoblast (creatine kinase activity); assay type: cell-based; settings: 48 h, 1 μM compound, 2 days in differentiation medium, CK activity without compound = 100%, read-out: creatinine kinase activating action (%)
Procedure: • (1) Mouse-derived myoblast line C2C12 cell (Dainippon Pharmaceutical Co., Ltd.) was subcultured in a high glucose Eagle's modified Dulbecco's medium (GIBCO) containing 10% calf fetal bovine serum (GIBCO), 100 unit/mL penicillin and 100 μg/mL streptomycin (hereinafter to be referred to as a growth medium), plated at 5000 cells/cm^2 and cultured at 37° C., under 5% CO2. • (2) When the cells reached subconfluence, the medium was exchanged with a high glucose Eagle's modified Dulbecco's medium (GIBCO) containing 2% horse serum (GIBCO) and penicillin, streptomycin and a test compound (hereinafter to be referred to as a differentiation medium), and the cells were cultured for 2 days. To the control group was added DMSO solution instead of the test compound. • (3) The cells were washed with PBS, 0.5% NP-40 solution was added thereto, and the cells were lysed by freeze-thawing. The cell extract was centrifuged, and the creatine kinase activity in the supernatant was measured as an index of muscle differentiation. The creatine kinase activity was measured using CPKII Test Wako (Wako Pure Chemical Industries, Ltd.) according to the manual of the kit. The tests using the compounds of Example 7 to Example 14 were corrected based on the total protein amount measured using CA Protein Assay Kit (Thermo Scientific).
The numerical values in Table 3 show CK activity of the compound addition group with the CK activity without addition of the compound as 100%, and 1 μM of the compound was added for the measurement.

[4] = Anti-diabetes action in KKA^y mouse (glycohemoglobin); assay type: in vivo, female KKA^y mouse; settings: 0.01% mixed with feed, 2 weeks; variation from value before administration; n=6
Procedure: Female KKA^y mice (12-13 week-old, CLEA Japan, Inc.) were bred allowing free ingestion of both feed and water. The mice were acclimation bred with powder CE-2 (CLEA Japan, Inc.) from 2 weeks before administration of the test compound. The body weight, blood glycohemoglobin % (GHb %) value, plasma glucose, triglyceride and total cholesterol concentration were measured, and the mice were divided into 3 groups or 5 groups (6 mice/group) such that those measurement values are uniform at the start of the administration. The compound was administered by mixing (0.01-0.03%) in the feed for 2 weeks. GHb % was measured on the last day. GHb % was measured using Tosoh Corporation automatic glycohemoglobin analyzer (HLC-723GHbV Alc2.2). The numerical values in Table 11 show the variation from the value before administration to the measured value after administration in mean±standard deviation at n=6 (n is the number of mice).

O=C(/C=C/c1cnccc1-c1ccc(F)cc1)Nc1ccc(CCc2nnco2)cc1 [Example 1, (2E)-3-[4-(4-fluorophenyl)pyridin-3-yl]-N-{4-[2-(1,3,4-oxadiazol-2-yl)ethyl]phenyl}prop-2-enamide]
plasma total cholesterol concentration (mg/dL) before administration ([1]; 3 mg/kg/day group): 265.5 ± 29.7 mg/dL | plasma total cholesterol concentration (mg/dL) after administration for 4 weeks ([1]; 3 mg/kg/day oral): 225.9 ± 27.7 mg/dL | body weight ([1]; 3 mg/kg/day oral): 52.5 ± 2.5 g | plasma total cholesterol concentration (mg/dL) before administration ([1]; 10 mg/kg/day group): 270.9 ± 24.5 mg/dL | plasma total cholesterol concentration (mg/dL) after administration for 4 weeks ([1]; 10 mg/kg/day oral): 192.8 ± 27.6 mg/dL | body weight ([1]; 10 mg/kg/day oral): 49.0 ± 3.2 g | plasma total cholesterol concentration (mg/dL) before administration ([1]; 30 mg/kg/day group): 275.9 ± 18.2 mg/dL | plasma total cholesterol concentration (mg/dL) after administration for 4 weeks ([1]; 30 mg/kg/day oral): 161.7 ± 16.9 mg/dL | body weight ([1]; 30 mg/kg/day oral): 44.9 ± 3.1 g | body weight decreasing action ([1]; administration at 10 mg/kg or above, result in words): showed a body weight decreasing action | plasma total cholesterol concentration, result in words ([1]; high-fat diet-loaded mouse, 4 weeks oral): decreased total cholesterol concentration | lactic acid production promoting action (%) [2]: 226.1% | NF-κB activity (multiple) (NF-kB; 0.001 μM compound): 13.2 multiple | NF-κB activity (multiple) (NF-kB; 0.003 μM compound): 13.4 multiple | NF-κB activity (multiple) (NF-kB; 0.01 μM compound): 13.7 multiple | NF-κB activity (multiple) (NF-kB; 0.03 μM compound): 12.5 multiple | NF-κB activity (multiple) (NF-kB; 0.1 μM compound): 10.7 multiple | NF-κB activity (multiple) (NF-kB; 0.3 μM compound): 9.4 multiple | NF-κB activity (multiple) (NF-kB; 1 μM compound): 9.3 multiple | NF-κB activity (multiple) (NF-kB; 3 μM compound): 8.3 multiple | NF-κB activity (multiple) (NF-kB; 10 μM compound): 9.0 multiple | lipid accumulation amount in the cell in fat differentiation, result in words (3T3-L1 cells; 1 μM): decrease the lipid accumulation amount in the cell | lipid accumulation (%) (3T3-L1 cells; 1 μM compound, 6 days, without compound = 100%, n=2): 53% | activity at 1 µM [3]: 196% | GHb change (%) [4]: −0.4%
